Test results: patent US9738668B2

Legend:
cells [1] = experiment: Trypan blue dye exclusion (cell viability and toxicity); format: cell-based; details: 1, 10, 50, 100 μM, 48 to 66 hours
Protocol: The trypan blue dye exclusion is commonly used for measuring cell viability and toxicity. 48-66 hours after treatment of ABAD compounds, the trypan blue exclusion experiments were performed. In brief, cells plated in 96-well plates were washed with the balanced salt solution (Hanks-Balanced Salts/HBSS) once, then replaced with HBSS including trypan blue solution to the final concentration of 0.2% (Sigma-Aldrich, St. Louis, Mo.), and mixed thoroughly. After standing at room temperature for 5 minutes, the cells were washed with HESS again and then maintained in the well with HBSS. Both the stained and unstained cells in each well were counted under a microscope (Nikon E400). The calculated percentage of unstained cells represented the percentage of viable cells. Cell viability (%)=total viable cells (unstained)/total cells (stained and unstained)×100.
(§1) The effect of ABAD inhibitors on cell viability and toxicity was assessed using MTT reduction assay and trypan blue exclusion, which are widely used to assess cell survival and toxicity and to screen for drugs toxicity. Cells were treated with a range of concentrations of ABAD compound (4 and 8) at 1, 10, 50, 100 μM for 48 to 66 hours.

SK-N-SH cells [2] = experiment: Mitochondrial cytochrome c oxidase (CcO) activity in Aβ-treated cells; format: cell-based; details: for CcO activity, inhibitor alone: 1 μM inhibitor without Aβ; for CcO activity: 5 μM oligomer Aβ1-42 plus 1 μM inhibitor, 48 hours
Protocol: SK-NSH cells were treated with 5 μM oligomer Aβ plus 1 μM of ABAD inhibitor; inhibitor alone; vehicle (VEH) without inhibitor; or Aβ alone. Forty-eight hour later, CcO activity (μmol protein mg^−1 min^−1) was measured in cell lysates.
The CcO activity was measured according to known methods (Du, et al. (2008) Nat. Med. 14:1097-105) with a cytochrome c oxidase kit (Sigma). In brief, SK-N-SH cells were incubated with ABAD inhibitor and oligomer Aβ for 48 hours. After washing the cells twice with PBS, the cells were collected and concentration was determined by the Bradford method. A suitable volume of cells and enzyme solution was added to 475 μl assay buffer. The reaction was triggered by the addition of 25 μl freshly prepared ferrocytochrome C substrate solution into the cuvette. Changes in OD550 nm were recorded immediately with an Amersham Biosciences ULTROSPECT 3100 pro spectrophotometer.
To assess the effect of ABAD inhibitor on Aft-induced mitochondrial respiratory function, CcO activity was determined.

brain mitochondria = experiment: Mitochondria swelling assay in response to Ca2+; parameters: species or system mice; details: for calcium-mediated mitochondrial swelling: with calcium
Protocol: Brain from mice without white matter was used for mitochondrial isolation. Brain was homogenized in 9 ml of ice-cold EB buffer (1 mmol EDTA, 1-6 mg/ml BSA) using a Dounce homogenizer until no particles could be seen. Homogenates were centrifuged at 1300×g for 5 minutes. Supernatant from this fraction was carefully laid on top of a 15% PERCOLL solution (10 ml) and then centrifuged at 16000 RPM for 10 minutes. The pellet was carefully mixed with 9 ml of mitochondrial buffer (4.098% D-mannitol, 2.56% sucrose, 0.034% K2HPO4, pH 7.3-7.4) and 200 μl of 1% digitonin. After 5 minutes incubation on ice, the mixture was centrifuged at 8000 RPM for 10 minutes. Mitochondrial pellet was washed once with mitochondrial buffer. Subsequently, the mitochondrial pellet was resuspended in 100 μl of mitochondrial buffer and was used for further experiments.
A proper amount of mitochondria was resuspended into 1 ml swelling assay buffer (150 mM KCl, 2 mM KH2PO4, 10 mM HEPES, pH 7.4) and energized by 1 mM glutamate and 1 mM malate. Calcium at varying concentrations was added into the assay buffer to trigger mitochondrial swelling. Mitochondrial permeability transition was determined by studying the rate of change in absorbance at 540 nm via a spectrophotometer.
Given that the Compounds 4, 8 and 15 could inhibit ABAD activity, it was determined whether these same compounds could decrease mitochondrial permeability transition pore (mPTP) formation.

[3] = Solubility in solvents during LC method development; format: physicochemical
Protocol: During the development of a detection method for analytes 4, 8 and 15, multiple solvents were tested to find the optimal mobile phase. […] Acetonitrile was selected for better peak shape and compatibility with serum/brain protein precipitation. Compounds 8 and 15 were chosen as IS, because of their structural similarity. Selected reaction monitoring (SRM) acquisitions were used for sensitivity and extended dynamic range. The cone voltage and collision energy were optimized for 4, 8 and 15 and the IS by continuously infusing a mixture of the two. The optimum cone voltage was 30V.

cells [4] = experiment: MTT reduction assay (cell survival and toxicity); format: cell-based; details: 1, 10, 50, 100 μM, 48 to 66 hours
Protocol: The MTT (3-(4,5-dimethylthiazol-2-yl)-2,5-diphenyltetrazolium bromide) assay, which is widely used to measure cell proliferation and to screen for anticancer drugs, was used for assessing cell viability. Cells were treated with a range of ABAD compounds at 1, 10, 50, and 100 μM for 48 hours and then subjected to MTT reduction assay following the manufacture's instruction.
as §1

SK-N-SH cells [5] = experiment: ATP levels in Aβ-treated cells; format: cell-based; details: for ATP levels: 5 μM Aβ1-42 plus 1 μM inhibitor; for ATP levels, inhibitor alone: inhibitor without Aβ
Protocol: Forty-eight hour later, ATP levels (μmol mg^−1 protein) were measured in cell lysates.
To determine the effect of ABAD inhibitors on Aβ-induced impairment in energy metabolism, ATP levels were measured. […] ATP levels were measured in the cell lysates. […] Therefore, ABAD inhibitors can block mitochondrial dysfunction mediated by Aβ.

mAPP mice = experiment: Morris water maze learning and memory in Alzheimer's Disease transgenic mice; format: in vivo; details: for latency to find the hidden platform: treated vs untreated AD mice; for number of crossings at the target location / percent of time spent in the target quadrant: treated vs untreated mAPP mice, probe trial
Protocol: Wild-type mice (Non Tg) were also administered Compound 8 (n=5) and vehicle (n=5). Each mouse was given four 60-second trials per day for six consecutive days to find the hidden platform in a Morris water maze.
Wild-type mice were also administered Compound 8 […]. Each mouse was given four 60-second trials per day for seven consecutive days to find the hidden platform in a Morris water maze.
Each mouse was given four 60-second trials per day for six consecutive days to find the hidden platform in a Morris water maze.
In addition, the effect of Compounds 4 and 8 on learning and memory of Alzheimer's Disease (AD) transgenic mice was evaluated. Six month and 9-14 month-old transgenic mice overexpressing a mutated form of the human amyloid precursor protein (mAPP mice) and their wild-type (non Tg) littermates were used in this study. […] Moreover, performance in a spatial MWM trial was evaluated using crossings over the platform area (an index of memory precision; Morris (1984) J. Neurosci. Methods 11:47-60), percent of time spent in target quadrant (an index of memory retrieval; Morris (1984) J. Neurosci. Methods 11:47-60), and swim paths.

COc1ccc2nc(N[C@@H](c3ccc(O)cc3)P(=O)(OC)OC)sc2c1 (racemic) [Compound 8, Dimethyl ((4-hydroxyphenyl)((6-methoxybenzo[d]thiazol-2-yl)amino)methyl)phosphonate]
percentage of trypan blue-positive cells (cells [1]): did not exhibit decreased MTT reduction, increased percentage of trypan blue-positive cells | CcO activity, inhibitor alone (SK-N-SH cells [2]): had no effect on CcO activity | CcO activity (SK-N-SH cells [2]): reversed the Aβ-mediated decrease of CcO activity | calcium-mediated mitochondrial swelling (brain mitochondria): antagonized calcium-mediated mitochondrial swelling | mitochondrial swelling without calcium (brain mitochondria): did not affect mitochondrial swelling | solubility in methanol or acetonitrile [3]: dissolved readily | solubility in water [3]: dissolved partially | MTT reduction (cells [4]): did not exhibit decreased MTT reduction | ATP levels (SK-N-SH cells [5]): rescued ATP levels | ATP levels, inhibitor alone (SK-N-SH cells [5]): comparable to cells treated with vehicle alone | latency to find the hidden platform (mAPP mice): significantly shorter latency | number of crossings at the target location (mAPP mice): significantly more | percent of time spent in the target quadrant (mAPP mice): significantly more

COC(=O)c1cc([C@H](Nc2nc3ccc(OC)cc3s2)P(=O)(OC)OC)ccc1O [Compound 4, Methyl 5-((dimethoxyphosphoryl)((6-methoxybenzo[d]thiazol-2-yl)amino)methyl)-2-hydroxybenzoate]
percentage of trypan blue-positive cells (cells [1]): did not exhibit decreased MTT reduction, increased percentage of trypan blue-positive cells | CcO activity, inhibitor alone (SK-N-SH cells [2]): had no effect on CcO activity | CcO activity (SK-N-SH cells [2]): reversed the Aβ-mediated decrease of CcO activity | calcium-mediated mitochondrial swelling (brain mitochondria): antagonized calcium-mediated mitochondrial swelling | mitochondrial swelling without calcium (brain mitochondria): did not affect mitochondrial swelling | solubility in methanol or acetonitrile [3]: dissolved readily | solubility in water [3]: dissolved partially | MTT reduction (cells [4]): did not exhibit decreased MTT reduction | ATP levels (SK-N-SH cells [5]): rescued ATP levels | ATP levels, inhibitor alone (SK-N-SH cells [5]): comparable to cells treated with vehicle alone | latency to find the hidden platform (mAPP mice): significantly shorter latency | number of crossings at the target location (mAPP mice): significantly more | percent of time spent in the target quadrant (mAPP mice): significantly more
